Data taken from patent US6660283B2, “Use of cinnamic acid, or of at least one of its derivatives in a cosmetic composition” (Societe L'Oreal S.A., priority 1997, dated 2003).

Tested on: reconstructed human epidermis
Experiment: Incorporation of 14C acetate into total lipids of reconstructed human epidermis (Skinethic)
Type: cell-based
Conditions: for percentage of stimulation (incorporation of 14C acetate, lipid synthesis): relative to untreated cells = 100
Procedure: The study is carried out by measuring the incorporation of carbon-14-labelled acetate in models of reconstructed human epidermis sold by the company Skinethic, in which the composition of total lipids is close to that of normal human epidermis.
The reconstructed human epidermis cultures are prepared according to the supplier's recommendations.
Cinnamic acid, at concentrations of 10^−5, 10^−6 and 10^−7 M, is placed in contact for 72 hours with reconstructed human epidermes after they have been cultured for 14 days under the conditions recommended by the supplier. The labelling with ^14C acetate (sodium [2-^14C]-acetate sold by Amersham, 59 mCi/mmol) is carried out 24 hours after placing the test product in contact with the culture, i.e. during the final 48 hours of culturing, at a rate of 0.5 μCi of ^14C acetate per culture.
At the end of culturing, after washing the epidermes with phosphate buffer (PBS), the epidermides are dissociated and the cells are lysed with 0.5M perchloric acid on ice. The lysates are then extracted with a methanol/chloroform mixture (2:1), centrifuged and the pellets obtained are extracted again under the same conditions as before. The lipids are separated out by addition of PBS and chloroform (Blight-Byer technique). The organic phase containing the lipids is taken off and the radioactive incorporated in this phase is determined by liquid scintillation. The organic phase is then dried under a stream of nitrogen. Thin layer plate chromatography on Merck K60 plates is carried out using, as eluent, a chloroform/methanol/water mixture (50/18/2.6) to separate the phospholipids, or a hexane/ether/acetic acid mixture (15/5.6/0.19) to separate the neutral lipids.
The plates are then autoradiographed for 24 hours and the chromatograms are analysed by densitometry using the One-D-Scan software from the company Scanalytics.
The results are evaluated relative to a control consisting of cells which have not been treated with cinnamic acid.
A positive control (10^−4 M trifluoperazine), which is known to stimulate lipid synthesis, and a negative control (10^−6 M retinoic acid), which is known to inhibit lipid synthesis, are introduced into the test as reference.

O=C(O)C=Cc1ccccc1 [cinnamic acid]
percentage of stimulation (incorporation of 14C acetate, lipid synthesis) (10^−5 M, 72 hours contact): 113% | percentage of stimulation (incorporation of 14C acetate, lipid synthesis) (10^−6 M, 72 hours contact): 109% | percentage of stimulation (incorporation of 14C acetate, lipid synthesis) (10^−7 M, 72 hours contact): 124% | effect on incorporation of 14C acetate (lipid synthesis), in words (reconstructed human epidermis, 10^−5 to 10^−7 M): significantly stimulates

CN1CCN(CCCN2c3ccccc3Sc3ccc(C(F)(F)F)cc32)CC1 [trifluoroperazine, trifluoperazine, reference compound]
percentage of stimulation (incorporation of 14C acetate, lipid synthesis) (10^−4 M): 122%

CC1=C(/C=C/C(C)=C/C=C/C(C)=C/C(=O)O)C(C)(C)CCC1 [retinoic acid, reference compound]
percentage of stimulation (incorporation of 14C acetate, lipid synthesis) (10^−6 M, 72 hours contact): 82%
